# Assay results taken from US20190388425A1, “SUBSTITUTED IMIDAZOPYRIDINPYRIMIDINES” (Bayer Pharma Aktiengesellschaft, priority 2017, published 2019).
# pIC50: −log10 of the molar value.
# Molecular target: T1, human full-length MKNK1 (Homo sapiens, UniProt Q9BUB5, T385D)
# T1 construct: GST (N); purchased Carna Biosciences 02-145; host or cells: insect cells (baculovirus expression system)
# Experiment: MKNK1 kinase high ATP assay (TR-FRET)
# Assay type: biochemical
# Conditions: TR-FRET, 2 mM ATP (high ATP), 15 min preincubation with enzyme, 30 min reaction at 22° C.; read-out: MKNK1 IC50
# Method in brief: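 Full-length human MKNK1 (T385D) preincubated 15 min at 22 °C with compound in HEPES pH 7.5/MgCl2/DTT buffer; reaction with 2 mM ATP (final) and 0.06 μM biotinylated peptide (final), 30 min at 22 °C.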
# T1 sequence (Q9BUB5 1-424 isoform Q9BUB5-2 T344D): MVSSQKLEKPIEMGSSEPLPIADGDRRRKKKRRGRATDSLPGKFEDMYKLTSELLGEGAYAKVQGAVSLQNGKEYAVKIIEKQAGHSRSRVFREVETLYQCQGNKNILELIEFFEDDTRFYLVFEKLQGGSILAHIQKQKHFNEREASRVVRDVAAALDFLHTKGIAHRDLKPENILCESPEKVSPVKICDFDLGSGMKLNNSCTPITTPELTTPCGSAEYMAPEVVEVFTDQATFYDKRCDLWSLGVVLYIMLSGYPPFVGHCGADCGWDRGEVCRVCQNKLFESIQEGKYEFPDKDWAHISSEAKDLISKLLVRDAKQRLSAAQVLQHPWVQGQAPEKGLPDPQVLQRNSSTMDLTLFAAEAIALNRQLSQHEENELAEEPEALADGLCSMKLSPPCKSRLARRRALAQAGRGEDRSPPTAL
row,pIC50,Structure (SMILES)
1,9.15,"Cc1cc(Nc2ncnc3sc4c(c23)CC[C@H](C(=O)N2C[C@H]3C[C@@H]2CO3)C4)c(=O)n2c1C(=O)NC21CS(=O)(=O)C1 [Example 72, 8-Methyl-6-({(7S)-7-[(1R,4R)-2-oxa-5-azabicyclo[2.2.1]hept-5-ylcarbonyl]-5,6,7,8-tetrahydro[1]benzothieno[2,3-d]pyrimidin-4-yl}amino)-2H-spiro[imidazo[1,5-a]pyridine-3,3′-thietane]-1,5-dione 1′,1′-dioxide]"
2,8.80,"O=C1NC2(CCCCC2)n2c1c(Cl)cc(Nc1ncnc3sc4c(c13)CC[C@H](C(=O)O)C4)c2=O [Example 73, (7S)-4-[(8′-Chloro-1′,5′-dioxo-1′,5′-dihydro-2′H-spiro[cyclohexane-1,3′-imidazo[1,5-a]pyridin]-6′-yl)amino]-5,6,7,8-tetrahydro[1]benzothieno[2,3-d]pyrimidine-7-carboxylic acid]"
3,9.05,"NC(=O)[C@H]1CCc2c(sc3ncnc(Nc4cc(Cl)c5n(c4=O)C4(CCCCC4)NC5=O)c23)C1 [Example 74, (7S)-4-[(8′-Chloro-1′,5′-dioxo-1′,5′-dihydro-2′H-spiro[cyclohexane-1,3′-imidazo[1,5-a]pyridin]-6′-yl)amino]-5,6,7,8-tetrahydro[1]benzothieno[2,3-d]pyrimidine-7-carboxamide]"
4,8.77,"CN(C)C(=O)[C@H]1CCc2c(sc3ncnc(Nc4cc(Cl)c5n(c4=O)C4(CCCCC4)NC5=O)c23)C1 [Example 75, (7S)-4-[(8′-Chloro-1′,5′-dioxo-1′,5′-dihydro-2′H-spiro[cyclohexane-1,3′-imidazo[1,5-a]pyridin]-6′-yl)amino]-N,N-dimethyl-5,6,7,8-tetrahydro[1]benzothieno[2,3-d]pyrimidine-7-carboxamide]"
5,9.05,"O=C1NC2(CCCCC2)n2c1c(Cl)cc(Nc1ncnc3sc4c(c13)CC[C@H](C(=O)N1CCC1)C4)c2=O [Example 76, 6′-{[(7S)-7-(Azetidin-1-ylcarbonyl)-5,6,7,8-tetrahydro[1]benzothieno[2,3-d]pyrimidin-4-yl]amino}-8′-chloro-2′H-spiro[cyclohexane-1,3′-imidazo[1,5-a]pyridine]-1′,5′-dione]"
6,9.10,"N#CC1CN(C(=O)[C@H]2CCc3c(sc4ncnc(Nc5cc(Cl)c6n(c5=O)C5(CCCCC5)NC6=O)c34)C2)C1 [Example 77, 1-({(7S)-4-[(8′-Chloro-1′,5′-dioxo-1′,5′-dihydro-2′H-spiro[cyclohexane-1,3′-imidazo[1,5-a]pyridin]-6′-yl)amino]-5,6,7,8-tetrahydro[1]benzothieno[2,3-d]pyrimidin-7-yl}carbonyl)azetidine-3-carbonitrile]"
7,8.32,"CN(C)[C@H]1CCN(C(=O)[C@H]2CCc3c(sc4ncnc(Nc5cc(Cl)c6n(c5=O)C5(CCCCC5)NC6=O)c34)C2)C1 [Example 78, 8′-Chloro-6′-{[(7S)-7-{[(3S)-3-(dimethylamino)pyrrolidin-1-yl]carbonyl}-5,6,7,8-tetrahydro[1]benzothieno[2,3-d]pyrimidin-4-yl]amino}-2′H-spiro[cyclohexane-1,3′-imidazo[1,5-a]pyridine]-1′,5′-dione]"
8,9.52,"C[C@@H]1COCCN1C(=O)[C@H]1CCc2c(sc3ncnc(Nc4cc(Cl)c5n(c4=O)C4(CCCCC4)NC5=O)c23)C1 [Example 79, 8′-Chloro-6′-{[(7S)-7-{[(3R)-3-methylmorpholin-4-yl]carbonyl}-5,6,7,8-tetrahydro[1]benzothieno[2,3-d]pyrimidin-4-yl]amino}-2′H-spiro[cyclohexane-1,3′-imidazo[1,5-a]pyridine]-1′,5′-dione]"
9,9.70,"C[C@@H]1CN(C(=O)[C@H]2CCc3c(sc4ncnc(Nc5cc(Cl)c6n(c5=O)C5(CCCCC5)NC6=O)c34)C2)CCN1C [Example 80, 8′-Chloro-6′-{[(7S)-7-{[(3R)-3,4-dimethylpiperazin-1-yl]carbonyl}-5,6,7,8-tetrahydro[1]benzothieno[2,3-d]pyrimidin-4-yl]amino}-2′H-spiro[cyclohexane-1,3′-imidazo[1,5-a]pyridine]-1′,5′-dione]"
10,9.52,"O=C1NC2(CCCCC2)n2c1c(Cl)cc(Nc1ncnc3sc4c(c13)CC[C@H](C(=O)N1C[C@H]3C[C@@H]1CO3)C4)c2=O [Example 81, 8′-Chloro-6′-({(7S)-7-[(1R,4R)-2-oxa-5-azabicyclo[2.2.1]hept-5-ylcarbonyl]-5,6,7,8-tetrahydro[1]benzothieno[2,3-d]pyrimidin-4-yl}amino)-2′H-spiro[cyclohexane-1,3′-imidazo[1,5-a]pyridine]-1′,5′-dione]"
11,8.82,"Cc1cc(Nc2ncnc3sc4c(c23)CC[C@H](C(=O)N2CC(C#N)C2)C4)c(=O)n2c1C(=O)N[C@]21CC[C@@](O)(C(F)(F)F)CC1 [Example 82, 1-{[(7S)-4-{[(cis)-4-Hydroxy-8′-methyl-1′,5′-dioxo-4-(trifluoromethyl)-1′,5′-dihydro-2′H-spiro[cyclohexane-1,3′-imidazo[1,5-a]pyridin]-6′-yl]amino}-5,6,7,8-tetrahydro[1]benzothieno[2,3-d]pyrimidin-7-yl]carbonyl}azetidine-3-carbonitrile]"
12,8.82,"Cc1cc(Nc2ncnc3sc4c(c23)CC[C@H](C(=O)N2CCN(C)[C@H](C)C2)C4)c(=O)n2c1C(=O)N[C@]21CC[C@@](O)(C(F)(F)F)CC1 [Example 83, (cis)-6′-{[(7S)-7-{[(3R)-3,4-Dimethylpiperazin-1-yl]carbonyl}-5,6,7,8-tetrahydro[1]benzothieno[2,3-d]pyrimidin-4-yl]amino}-4-hydroxy-8′-methyl-4-(trifluoromethyl)-2′H-spiro[cyclohexane-1,3′-imidazo[1,5-a]pyridine]-1′,5′-dione]"
13,9.00,"O=C1NC2(CCCC2)n2c1c(Cl)cc(Nc1ncnc3sc4c(c13)CC[C@H](C(=O)O)C4)c2=O [Example 84, (7S)-4-[(8′-Chloro-1′,5′-dioxo-1′,5′-dihydro-2′H-spiro[cyclopentane-1,3′-imidazo[1,5-a]pyridin]-6′-yl)amino]-5,6,7,8-tetrahydro[1]benzothieno[2,3-d]pyrimidine-7-carboxylic acid]"
14,9.70,"NC(=O)[C@H]1CCc2c(sc3ncnc(Nc4cc(Cl)c5n(c4=O)C4(CCCC4)NC5=O)c23)C1 [Example 85, (7S)-4-[(8′-Chloro-1′,5′-dioxo-1′,5′-dihydro-2′H-spiro[cyclopentane-1,3′-imidazo[1,5-a]pyridin]-6′-yl)amino]-5,6,7,8-tetrahydro[1]benzothieno[2,3-d]pyrimidine-7-carboxamide]"
15,10.00,"CN(C)C(=O)[C@H]1CCc2c(sc3ncnc(Nc4cc(Cl)c5n(c4=O)C4(CCCC4)NC5=O)c23)C1 [Example 86, (7S)-4-[(8′-Chloro-1′,5′-dioxo-1′,5′-dihydro-2′H-spiro[cyclopentane-1,3′-imidazo[1,5-a]pyridin]-6′-yl)amino]-N,N-dimethyl-5,6,7,8-tetrahydro[1]benzothieno[2,3-d]pyrimidine-7-carboxamide]"
16,9.70,"O=C1NC2(CCCC2)n2c1c(Cl)cc(Nc1ncnc3sc4c(c13)CC[C@H](C(=O)N1CCC1)C4)c2=O [Example 87, 6′-{[(7S)-7-(Azetidine-1-carbonyl)-5,6,7,8-tetrahydro[1]benzothieno[2,3-d]pyrimidin-4-yl]amino}-8′-chloro-2′H-spiro[cyclopentane-1,3′-imidazo[1,5-a]pyridine]-1′,5′-dione]"
17,> 10.00,"N#CC1CN(C(=O)[C@H]2CCc3c(sc4ncnc(Nc5cc(Cl)c6n(c5=O)C5(CCCC5)NC6=O)c34)C2)C1 [Example 88, 1-{(7S)-4-[(8′-Chloro-1′,5′-dioxo-1′,5′-dihydro-2′H-spiro[cyclopentane-1,3′-imidazo[1,5-a]pyridin]-6′-yl)amino]-5,6,7,8-tetrahydro[1]benzothieno[2,3-d]pyrimidine-7-carbonyl}azetidine-3-carbonitrile]"
18,> 10.00,"CN(C)[C@H]1CCN(C(=O)[C@H]2CCc3c(sc4ncnc(Nc5cc(Cl)c6n(c5=O)C5(CCCC5)NC6=O)c34)C2)C1 [Example 89, 8′-Chloro-6′-({(7S)-7-[(3S)-3-(dimethylamino)pyrrolidine-1-carbonyl]-5,6,7,8-tetrahydro[1]benzothieno[2,3-d]pyrimidin-4-yl}amino)-2′H-spiro[cyclopentane-1,3′-imidazo[1,5-a]pyridine]-1′,5′-dione]"
19,9.52,"C[C@@H]1COCCN1C(=O)[C@H]1CCc2c(sc3ncnc(Nc4cc(Cl)c5n(c4=O)C4(CCCC4)NC5=O)c23)C1 [Example 90, 8′-Chloro-6′-({(7S)-7-[(3R)-3-methylmorpholine-4-carbonyl]-5,6,7,8-tetrahydro[1]benzothieno[2,3-d]pyrimidin-4-yl}amino)-2′H-spiro[cyclopentane-1,3′-imidazo[1,5-a]pyridine]-1′,5′-dione]"
20,> 10.00,"C[C@@H]1CN(C(=O)[C@H]2CCc3c(sc4ncnc(Nc5cc(Cl)c6n(c5=O)C5(CCCC5)NC6=O)c34)C2)CCN1C [Example 91, 8′-Chloro-6′-({(7S)-7-[(3R)-3,4-dimethylpiperazine-1-carbonyl]-5,6,7,8-tetrahydro[1]benzothieno[2,3-d]pyrimidin-4-yl}amino)-2′H-spiro[cyclopentane-1,3′-imidazo[1,5-a]pyridine]-1′,5′-dione]"
21,9.00,"O=C1NC2(CCCC2)n2c1c(Cl)cc(Nc1ncnc3sc4c(c13)CC[C@H](C(=O)N1C[C@H]3C[C@@H]1CO3)C4)c2=O [Example 92, 8′-Chloro-6′-({(7S)-7-[(1R,4R)-2-oxa-5-azabicyclo[2.2.1]heptane-5-carbonyl]-5,6,7,8-tetrahydro[1]benzothieno[2,3-d]pyrimidin-4-yl}amino)-2′H-spiro[cyclopentane-1,3′-imidazo[1,5-a]pyridine]-1′,5′-dione]"
22,8.89,"O=C1NC2(CCC2)n2c1c(Cl)cc(Nc1ncnc3sc4c(c13)CC[C@H](C(=O)O)C4)c2=O [Example 93, (7S)-4-[(8′-Chloro-1′,5′-dioxo-1′,5′-dihydro-2′H-spiro[cyclobutane-1,3′-imidazo[1,5-a]pyridin]-6′-yl)amino]-5,6,7,8-tetrahydro[1]benzothieno[2,3-d]pyrimidine-7-carboxylic acid]"
